# Test results as given in the NIST ThermoML archive (doi:10.1016/j.jct.2017.05.010).
# Numbers after ± are expanded uncertainties.
# Conditions: 101.33 kPa, Liquid, Single path-length method
structure (smiles),measurement,setting,value
CCCCOCCCN [3-butoxy-1-propanamine],speed of sound,283.15 K,1387.3 ± 1.7 m/s
same,speed of sound,288.15 K,1367.3 ± 1.7 m/s
same,speed of sound,293.15 K,1346.7 ± 1.7 m/s
same,speed of sound,298.15 K,1326.4 ± 1.7 m/s
same,speed of sound,303.15 K,1306.7 ± 1.7 m/s
